According to patent US12553889B2, “Small molecules targeting the intrinsically disordered structural ensemble of α-synuclein protect against diverse α-synuclein mediated dysfunctions” (The Regents of the University of California, priority 2019, dated 2026):
Entries after “also recorded” stand apart in the source; their conditions may differ.

Legend:
[1] = biological target: T1, αSyn (Homo sapiens, UniProt P37840, Q99C); test: αSyn FRET (Cy3/Cy5) oligomerization assay; type: biochemical
T1 construct: made in house; host or cells: E. coli BL21(DE3), pET28b
Description: For the FRET oligomerization assay, 10 μM each of αSyn-Q-C(position number)Cy3 (donor) and αSyn-Q(position number)C-Cy5 (acceptor) in PBS (pH 7.4) were dispensed into black/clear bottom 384-well plates (Greiner) using a Mantis liquid handler (Formulatrix). The plate was sealed with AbsorbMax film (Sigma-Aldrich) and incubated at 37° C. The FRET between donor and acceptor was measured on a SpectraMax M5 Microplate Reader (Molecular Devices). An excitation wavelength of 525 nm for αSyn-Cy3 (donor), and emission wavelengths of 570 nm and 670 nm for αSyn-Cy3 (donor) and αSyn-Cy5 (acceptor) respectively were used. The plate reader PTM sensitivity is set to medium and assays executed without mixing. The signals are read at 10 minute intervals for 99 hours at 37° C. Efficiency of FRET was calculated as follows: EFRET=IAcceptor/IDonor, in which IAcceptor is acceptor emission intensity, IDonor is donor emission intensity.
• 1. Single point mutation (x to Cys) is introduced to αSyn. • 2. Cy3 and Cy5 are used as FRET probes Brief Procedure: Label αSyn Mutant with Cy3/Cy5 Dyes: • Incubate purified αSyn Q99C with 1 mM TCEP at 4° C. for 3 hours to reduce Cys; • Dissolve Cy3-maleimide or Cy5-maleimide (GE Healthcare) in DMSO; • Add 10× molar excess of dye to αSyn Q99C; • Incubate at 4° C. overnight; • Remove excess dye by HiTrap Desalting column (GE Healthcare); FRET Assay • Mix the following: • αSyn-Q99C-Cy3 5 uM • αSyn-Q99C-Cy5 5 uM
Measure the fluorescence from Cy3 and Cy5 at 37° C. for 99 hours on a plate reader (SpectraMax M5, Molecular Devices).

[2] = biological target: αSyn (Homo sapiens, UniProt P37840); test: αSyn split Gaussia luciferase (GLuc) biochemical oligomerization assay; design: His tag; made in house; host or cells: E. coli BL21(DE3), pET28b; settings: 24 hours; for impact on αSyn oligomerization (GLuc complementation): 100 μM compound, 12.5 μM of each tagged synuclein; for impact on αSyn oligomerization relative to other active compounds (GLuc): 100 μM
Description: A mixture of purified αSyn fused at its C-terminus with either the N-Terminal or the C-terminal half of Gaussia luciferase was incubated and the formation of oligomers monitored by reconstituted luciferase activity (FIG. 9, GLuc). For comparison, fibrillization of αSyn was measured in parallel samples by measuring the fluorescence of the dye Thioflavin T (ThT) as is widely used in the field (FIG. 9, ThT). […] The αSyn-Split Gluc tags have been used to detect αSyn oligomerization in cell models via transfection and expression of DNA encoding αSyn fused to split Gluc tags, but it has not previously been used in a biochemical assay using purified proteins as shown here.
Five to […] each of αSyn-GLuc1 and μM αSyn-GLuc2, (N-terminal or C-terminal fragment of GLuc fused to the C-terminus of αSyn see Example 6) in a buffer consisting of 1 mM MgCl2, 1 mM ADP, 50 mM Na3PO4, 0.02% NaN3 and 1 mM DTT at pH 7.4, were incubated at 37° C. in a thermal cycler (BioRad DNA Engine PTC-200). In experiments in which fibrillization was also measured, samples were incubated in an air incubator with shaking at 1000 rpm. At various time points (typically 0, 6, 12, and 24 hours), Gaussia luciferase activity was quantified using a BioLux Gaussia Luciferase Assay Kit (NEB) according to the manufacturer's instructions and read on a SpectraMax M5 Microplate Reader (Molecular Devices) with 5 minute delay after the addition of substrate and 3 sec integration time reading each well.
• Mix αSyn-GLuc1 and αSyn-GLuc2 at a final concentration of 10 μM each; • Incubate at 37° C. with shaking at 1000 rpm for 120 hours; • Take aliquot at 0/3/6/12/24/48/72/96/120 hour for analysis by Gaussia luciferase activity assay and ThT assay Methods Gaussia Luciferase Assay (According to BioLux Kit Manual): • 1. Thaw reaction buffer and stabilizer; • 2. Make working solution, for each reaction: • Reaction Buffer 50 μL • BioLux Stabilizer 8 μL • Substrate 0.5 μL • 3. Mix well and wait 5 minutes to use the working solution; • 4. Take out 10 μL GLuc sample and put on white 96-well plates; • 5. Add 50 μL working solution, mix well and wait 3.5 minutes; • 6. Read on the plate reader at 480 nm ThT Assay: • 1. Dilute 1 mM Thioflavin T (M.W. 319 Da) stock in PBS to 25 μM final concentration (1:40 dilution) • 2. Pipet 95 μL of the 25 μM Thioflavin T per well of 384 well plate. • 3. Pipet αSyn fibril up and down to mix, add 5 μL to wells with Thioflavin T • 4. For controls, include 5 μL PBS alone. • 5. Incubate at room temperature for 15 min to 1 hour. • 6. Read plate (excitation 440 nm, emission 482 nm). Method Used to Screen 66 HT-CM-SPR Compounds Using αSyn-GLuc:
Reaction mix is added into 96-well PCR plate containing:
Reaction: • αSyn-GLuc1 12.5 μM • αSyn-GLuc2 12.5 μM • Compound 0/12.5/25/50/75/100 μM in DMSO 0.2% • Negative: DMSO 0.2%: • 37 degree (PCR), no shaking

Structure (SMILES) | activity in FRET αSyn oligomerization assay [1] | impact on αSyn oligomerization (GLuc complementation) [2] | impact relative to 576755 in FRET αSyn oligomerization assay [1] | impact on αSyn oligomerization relative to other active compounds (GLuc) [2]
Cc1c(-c2csc(NC(C(N)=O)C3CCNCC3)n2)sc2ccccc12 (stereo not shown) [Compound 573437, 2-((4-(3-methylbenzo[b]thiophen-2-yl)thiazol-2-yl)amino)-2-(piperidin-4-yl)acetamide] | block αSyn oligomerization | impair αSyn oligomerization |  | 
CNC(=O)c1cc(O)ccc1N [Compound 576755, 2-amino-5-hydroxy-N-methylbenzamide] | block αSyn oligomerization | impair αSyn oligomerization; also recorded: demonstrated inhibition of αSyn oligomerization |  | 
CNC(=O)c1cc(O)ccc1N(C)C [Compound 581823, 2-dimethylamino-5-hydroxy-N-methylbenzamide] | also active | demonstrated inhibition of αSyn oligomerization | less impact than 576755 | less impact than 576755
CNC(=O)c1cc(O)ccc1NC [Compound 581858, 2-methylamino-5-hydroxy-N-methylbenzamide] | also active | demonstrated inhibition of αSyn oligomerization |  | more impact on αSyn oligomerization than 576755 and 581823
CNC(=O)CN(C(=O)Cc1noc2ccccc12)C(C)c1ccc(Cl)cc1 (stereo not shown) [Compound 582032, 2-(benzo[d]isoxazol-3-yl)-N-(1-(4-chlorophenyl)ethyl)-N-(2-(methylamino)-2-oxoethyl)acetamide] | block αSyn oligomerization | impair αSyn oligomerization |  | 
CNC(=O)c1cc(O)ccc1O [Compound 583854, 2,5-dihydroxy-N-methylbenzamide] | also active | demonstrated inhibition of αSyn oligomerization |  | more impact on αSyn oligomerization than 576755 and 581823
